Values quoted from earlier work as cited in US20100120050A1, “Biomarkers For Assessing Altherosclerotic Potential” (ENTELOS, INC., priority 2008, published 2010).

Conditions: clinical trials and post-marketing; cited from earlier work

## Cc1c(C(=O)NN2CCCCC2)nn(-c2ccc(Cl)cc2Cl)c1-c1ccc(Cl)cc1 [rimonabant]
  effect on plaque endpoints: little observed effect on plaque endpoints
